Several values for one entry are separate records, joined by “and”; a condition that tells them apart may be missing. Equal entries are not always repeated. Inconclusive results and toxic doses are left out. The calls were made as follows: active = survival T/C of 150% or more; inactive = T/C below 125% in these data.
Test system: BDF1 mice, P388 leukemia ip, median survival T/C
Test: NCI In Vivo Anticancer Drug Screen. Data for tumor model P388 Leukemia (intraperitoneal) in B6D2F1 (BDF1) mice
Settings: endpoint: median survival time, higher = longer survival
Method in brief: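 Read-out is survival of treated animals expressed relative to the vehicle group, as a T/C ratio.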

[1] = dose: 12.5 mg/kg/injection, schedule: Q01DX009 (ip), vehicle: saline with Tween-80
[2] = dose: 25.0 mg/kg/injection, schedule: Q01DX009 (ip), vehicle: saline with Tween-80
[3] = dose: 50.0 mg/kg/injection, schedule: Q01DX009 (ip), vehicle: saline with Tween-80
[4] = dose: 100.0 mg/kg/injection, schedule: Q01DX009 (ip), vehicle: saline with Tween-80
[5] = dose: 100.0 mg/kg/injection, schedule: Q04DX003 (ip), vehicle: saline sonified
[6] = dose: 200.0 mg/kg/injection, schedule: Q04DX003 (ip), vehicle: saline sonified
[7] = dose: 400.0 mg/kg/injection, schedule: Q04DX003 (ip), vehicle: saline sonified
[8] = dose: 100.0 mg/kg/injection, schedule: Q04DX003 (ip), vehicle: saline with Tween-80

Measured: T/C

CCCc1c(N)c2ccccc2c2ccccc12
inactive: dose: 100.0 mg/kg/injection, schedule: Q04DX002 (ip), vehicle: saline with Tween-80 86 % of control | dose: 200.0 mg/kg/injection, schedule: Q04DX002 (ip), vehicle: saline with Tween-80 96 % of control | dose: 400.0 mg/kg/injection, schedule: Q04DX002 (ip), vehicle: saline with Tween-80 102 % of control

O=C1NCCN1c1cccc([N+](=O)[O-])c1
inactive: dose: 25.0 mg/kg/injection, schedule: Q04DX003 (ip), vehicle: Klucel (hydroxypropylcellulose) (HPC) 100 % of control | dose: 50.0 mg/kg/injection, schedule: Q04DX003 (ip), vehicle: Klucel (hydroxypropylcellulose) (HPC) 100 % of control

O=[N+]([O-])c1ccc(Sc2ccc(Cl)cc2)c2c1no[n+]2[O-]
inactive: dose: 15.0 mg/kg/injection, schedule: Q01DX009 (ip), vehicle: saline with Tween-80 112 % of control | dose: 30.0 mg/kg/injection, schedule: Q01DX009 (ip), vehicle: saline with Tween-80 112 % of control | dose: 60.0 mg/kg/injection, schedule: Q01DX009 (ip), vehicle: saline with Tween-80 112 % of control

CC1=CC(=O)NP(=O)(Oc2ccc3ccccc3c2)N1 (stereo unspecified)
inactive: dose: 25.0 mg/kg/injection, schedule: Q04DX003 (ip), vehicle: saline + alcohol 106 % of control | dose: 50.0 mg/kg/injection, schedule: Q04DX003 (ip), vehicle: saline + alcohol 98 % of control | dose: 100.0 mg/kg/injection, schedule: Q04DX003 (ip), vehicle: saline + alcohol 100 % of control | dose: 200.0 mg/kg/injection, schedule: Q04DX003 (ip), vehicle: saline + alcohol 94 % of control | dose: 400.0 mg/kg/injection, schedule: Q04DX003 (ip), vehicle: saline + alcohol 95 % of control

ClCCN(CCCl)c1ccc(C=Nc2ccc(/C=C\c3ccncc3)cc2)cc1
inactive: [1] 115 % of control | [2] 101 % of control | [3] 98 % of control | [4] 89 % of control

CC1CC2C(CC1O)C2(C)C (stereo unspecified)
inactive: [1] 100 % of control | [2] 95 % of control | [3] 109 % of control | [5] 111 % of control | [6] 111 % of control | [7] 100 % of control

O=Cc1c[nH]c(=O)[nH]c1=O
inactive: dose: 100.0 mg/kg/injection, schedule: Q04DX003 (ip), vehicle: saline 91 % of control | dose: 200.0 mg/kg/injection, schedule: Q04DX003 (ip), vehicle: saline 99 % of control | dose: 400.0 mg/kg/injection, schedule: Q04DX003 (ip), vehicle: saline 88 % of control

C[N+](C)(C)C.N=C=O.N=C=O.N=C=O.N=C=O.[Co+2]
inactive: dose: 2.5 mg/kg/injection, schedule: Q01DX009 (ip), vehicle: saline 88 % of control | dose: 5.0 mg/kg/injection, schedule: Q01DX001 (ip), vehicle: other 86 % of control | dose: 5.0 mg/kg/injection, schedule: Q01DX009 (ip), vehicle: saline with Tween-80 100 % of control | dose: 5.0 mg/kg/injection, schedule: Q04DX003 (ip), vehicle: saline with Tween-80 95 % of control | dose: 10.0 mg/kg/injection, schedule: Q01DX001 (ip), vehicle: other 95 % of control | dose: 10.0 mg/kg/injection, schedule: Q01DX009 (ip), vehicle: saline with Tween-80 115 % of control and 116 % of control | dose: 10.0 mg/kg/injection, schedule: Q04DX003 (ip), vehicle: saline with Tween-80 109 % of control | dose: 20.0 mg/kg/injection, schedule: Q01DX001 (ip), vehicle: other 100 % of control | dose: 20.0 mg/kg/injection, schedule: Q01DX009 (ip), vehicle: saline with Tween-80 95 % of control and 115 % of control | dose: 20.0 mg/kg/injection, schedule: Q01DX009 (ip), vehicle: saline 95 % of control | dose: 20.0 mg/kg/injection, schedule: Q04DX003 (ip), vehicle: saline with Tween-80 95 % of control | dose: 40.0 mg/kg/injection, schedule: Q01DX009 (ip), vehicle: saline 117 % of control

N/N=C1/CCN2CCCc3cccc1c32
inactive: dose: 50.0 mg/kg/injection, schedule: Q04DX003 (ip), vehicle: saline with Tween-80 100 % of control | [8] 110 % of control

O=C1C=CC(=O)c2c(O)cccc21
inactive: dose: 1.56 mg/kg/injection, schedule: Q01DX009 (ip), vehicle: saline with Tween-80 90 % of control | dose: 3.13 mg/kg/injection, schedule: Q01DX009 (ip), vehicle: saline with Tween-80 95 % of control | dose: 6.25 mg/kg/injection, schedule: Q01DX009 (ip), vehicle: saline with Tween-80 95 % of control

O=C1NCCS1
inactive: [5] 90 % of control | [6] 90 % of control | [7] 95 % of control

CC[C@@H](C(=O)[C@@H](C)[C@@H](O)[C@H](C)CCc1ccc(C)c(O)c1C(=O)O)[C@H]1O[C@](CC)([C@H]2CC[C@](O)(CC)[C@H](C)O2)C[C@@H]1C
inactive: dose: 3.12 mg/kg/injection, schedule: Q01DX009 (ip), vehicle: Klucel (hydroxypropylcellulose) (HPC) 108 % of control | dose: 6.25 mg/kg/injection, schedule: Q01DX009 (ip), vehicle: Klucel (hydroxypropylcellulose) (HPC) 110 % of control | dose: 12.5 mg/kg/injection, schedule: Q01DX009 (ip), vehicle: Klucel (hydroxypropylcellulose) (HPC) 118 % of control and 119 % of control

O=C(O)CCc1cccnc1
inactive: [4] 104 % of control

Cc1ccc(C(O)(c2ccccc2)C2C(c3ccccc3)N2C2CCCCC2)cc1 (stereo unspecified)
inactive: dose: 50.0 mg/kg/injection, schedule: Q01DX001 (ip), vehicle: saline sonified 96 % of control | dose: 100.0 mg/kg/injection, schedule: Q01DX001 (ip), vehicle: saline sonified 96 % of control | dose: 200.0 mg/kg/injection, schedule: Q01DX001 (ip), vehicle: saline sonified 92 % of control

CC(C)C1=CC2=C[C@H](O)[C@H]3C(C)(C)CCC[C@]3(C)C2=C(O)C1=O
inactive: dose: 2.0 mg/kg/injection, schedule: Q01DX010 (ip), vehicle: carboxymethylcellulose (CMC) 100 % of control | dose: 2.2 mg/kg/injection, schedule: Q01DX010 (ip), vehicle: carboxymethylcellulose (CMC) 112 % of control | dose: 3.3 mg/kg/injection, schedule: Q01DX010 (ip), vehicle: carboxymethylcellulose (CMC) 116 % of control | dose: 5.0 mg/kg/injection, schedule: Q01DX010 (ip), vehicle: carboxymethylcellulose (CMC) 120 % of control | dose: 10.0 mg/kg/injection, schedule: Q01DX010 (ip), vehicle: carboxymethylcellulose (CMC) 100 % of control | dose: 10.0 mg/kg/injection, schedule: Q01DX010 (ip), vehicle: other 115 % of control | dose: 20.0 mg/kg/injection, schedule: Q01DX010 (ip), vehicle: carboxymethylcellulose (CMC) 110 % of control

[N-]=[N+]=C1C(=O)NC(=O)N2C3CC(O)C(COC12)O3 (stereo unspecified)
active: dose: 132.0 mg/kg/injection, schedule: Q01DX009 (ip), vehicle: saline with Tween-80 154 % of control | dose: 200.0 mg/kg/injection, schedule: Q01DX009 (ip), vehicle: saline with Tween-80 159 % of control and 170 % of control | dose: 300.0 mg/kg/injection, schedule: Q01DX009 (ip), vehicle: saline with Tween-80 170 % of control and 177 % of control

OCCN1CCN(CC/C=C2\c3ccccc3COc3ccc(Cl)cc32)CC1
inactive: dose: 6.25 mg/kg/injection, schedule: Q04DX003 (ip), vehicle: saline 107 % of control | dose: 25.0 mg/kg/injection, schedule: Q04DX003 (ip), vehicle: saline 109 % of control

C1=CC2CC1C1CSCC21 (stereo unspecified)
inactive: dose: 0.03 mg/kg/injection, schedule: Q04DX003 (ip), vehicle: saline 100 % of control | dose: 0.06 mg/kg/injection, schedule: Q04DX003 (ip), vehicle: saline 91 % of control | dose: 0.13 mg/kg/injection, schedule: Q04DX003 (ip), vehicle: saline 95 % of control | dose: 0.19 mg/kg/injection, schedule: Q01DX009 (ip), vehicle: saline 95 % of control | dose: 0.27 mg/kg/injection, schedule: Q04DX003 (ip), vehicle: saline 100 % of control | dose: 0.39 mg/kg/injection, schedule: Q01DX009 (ip), vehicle: saline 104 % of control

Clc1ccc(/C=N\N=C\c2ccc(Cl)c(Cl)c2)cc1Cl
inactive: [8] 105 % of control | dose: 200.0 mg/kg/injection, schedule: Q04DX003 (ip), vehicle: saline with Tween-80 111 % of control | dose: 400.0 mg/kg/injection, schedule: Q04DX003 (ip), vehicle: saline with Tween-80 111 % of control

COC(=O)C1=C(C)NC(C)=C(C(=O)OC)C1C(C)Cl (stereo unspecified)
inactive: [3] 118 % of control | [4] 109 % of control

Source: PubChem BioAssay AID328 (DTP/NCI, 2004)
